Test [1] deals with Nuclear receptor subfamily 4 group A member 1 (Mus musculus) (UniProt P12813). In words: Agonist activity at Nur77 in wild-type mouse C57BL/6 assessed as hexokinase gene at 50 mg/kg, ip within 30 to 300 mins by real-time PCR analysis. Format: functional, organism-based. The arrangement: dose 50 mg/kg. On the technique in general: In qPCR the cycle at which signal appears reflects the starting amount.

The target in test [2] is Nuclear receptor subfamily 4immunitygroup A member 1 (Homo sapiens, UniProt P22736). In words: Agonist activity at Nur77 expressed in human BGC823 cells assessed as Nr4a1mRNA expression by real-time PCR. Format: functional, cell-based. The settings on record: BGC-823.
A further test concerns Staphylococcus aureus. The test is described as follows: Antimicrobial activity against Staphylococcus aureus. Format: functional, organism-based.
A further test deals with BGC-823. In words: Induction of Nur77 mediated apoptosis in human BGC823 cells assessed as cytochrome C release […] at 5 uM after 24 hrs by Western blotting analysis. Format: functional, cell-based. In general terms: A western blot detects proteins with antibodies after separation by electrophoresis.

The structures appear in SMILES notation. In brackets after ≈: the same amount, converted by molar mass. Activity calls are given as the source filed them. No cut-off for these calls is given here.

Chain of Nuclear receptor subfamily 4 group A member 1 (Mus musculus) (P12813 whole entry): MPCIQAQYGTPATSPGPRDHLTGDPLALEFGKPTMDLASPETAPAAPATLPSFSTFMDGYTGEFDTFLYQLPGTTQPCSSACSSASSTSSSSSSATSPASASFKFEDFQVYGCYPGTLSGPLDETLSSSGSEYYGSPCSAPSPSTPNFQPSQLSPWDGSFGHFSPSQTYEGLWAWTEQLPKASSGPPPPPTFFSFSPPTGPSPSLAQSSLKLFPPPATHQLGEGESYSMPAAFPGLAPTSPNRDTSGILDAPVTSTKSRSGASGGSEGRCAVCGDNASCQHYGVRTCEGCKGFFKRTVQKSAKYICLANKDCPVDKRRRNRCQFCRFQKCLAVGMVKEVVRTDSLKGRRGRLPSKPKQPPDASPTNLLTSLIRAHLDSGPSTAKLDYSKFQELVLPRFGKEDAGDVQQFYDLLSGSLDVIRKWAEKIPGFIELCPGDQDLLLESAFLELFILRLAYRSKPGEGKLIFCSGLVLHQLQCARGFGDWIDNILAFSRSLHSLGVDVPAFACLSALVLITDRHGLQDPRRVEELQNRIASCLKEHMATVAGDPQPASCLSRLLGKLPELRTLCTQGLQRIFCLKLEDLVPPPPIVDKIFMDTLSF
Chain of Nuclear receptor subfamily 4immunitygroup A member 1 (P22736 whole entry): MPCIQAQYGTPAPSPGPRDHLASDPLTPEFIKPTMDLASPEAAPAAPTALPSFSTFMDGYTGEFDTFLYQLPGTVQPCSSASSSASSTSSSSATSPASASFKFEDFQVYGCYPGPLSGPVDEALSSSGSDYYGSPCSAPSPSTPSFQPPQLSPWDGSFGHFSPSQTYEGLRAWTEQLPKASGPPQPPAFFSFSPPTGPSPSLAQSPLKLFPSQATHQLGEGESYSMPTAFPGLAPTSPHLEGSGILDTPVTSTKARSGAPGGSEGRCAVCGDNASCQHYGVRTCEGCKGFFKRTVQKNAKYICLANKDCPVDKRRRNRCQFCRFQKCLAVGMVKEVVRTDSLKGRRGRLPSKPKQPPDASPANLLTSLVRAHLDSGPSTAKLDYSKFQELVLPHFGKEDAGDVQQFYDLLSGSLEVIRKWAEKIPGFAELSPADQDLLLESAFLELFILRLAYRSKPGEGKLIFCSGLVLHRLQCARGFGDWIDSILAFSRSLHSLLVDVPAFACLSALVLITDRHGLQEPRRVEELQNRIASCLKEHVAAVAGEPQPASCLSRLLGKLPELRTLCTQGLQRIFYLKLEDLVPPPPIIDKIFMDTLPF

As a reminder, the IC50 is the concentration that inhibits the measured activity by half. Take `CCCCCCCC(=O)c1c(O)cc(O)cc1CC(=O)OCC` [CYTOSPORONE B]: the outcome in test [1] was inactive. Further, the outcome (in test [2]; in the test on BGC-823) was Active. Further, 12.5 µg/mL (≈ 38.8 µM) corresponded to half-maximal inhibition in the test on Staphylococcus aureus (IC50).

(Values after ChEMBL document CHEMBL1221214, “Cytosporone B is an agonist for nuclear orphan receptor Nur77” (Nat Chem Biol, 2008).)
